Laboratory results: patent US20230181430A1, “TOPICAL FORMULATIONS COMPRISING DUTASTERIDE FOR TREATING DERMATOLOGICAL DISORDERS INCLUDING MALE PATTERN BALDNESS” (XYON Health Inc., priority 2020, published 2023)
Several values for one entry are separate records, joined by “and”; a condition that tells them apart may be missing. Equal values may be shown once. Read-outs that look alike come from different tables or passages of the source.

Tests used:
[1] = in vivo; cited from earlier work
[2] = cited from earlier work
[3] = experimental; cited from earlier work
serum DHT = conditions: cited from earlier work; for reduction of serum DHT levels: oral administration / oral formulations
[4] = In vitro skin permeation assessment of dutasteride (Franz cell); type: in vitro ADME; conditions: 1-24 hours, human epidermis
Method: To investigate the impact of the siliconic components in dutasteride-loaded formulations, in vitro tests were conducted to measure the permeation through and retention into skin epidermis of a 1% dutasteride-loaded silicone gel formulation made according to the process of Example 2. As a comparison, a gel spray of dutasteride without silicone (PEG-8 Dimethicone or Poly(methylsilsesquioxane)) was also prepared. An original Franz-type diffusion cell system was modified to accommodate widened vertical columns and removal of the bowl shape. The diffusion area was 0.636 cm^2 with a receiver capacity of approximately 3.0 mL. The receiver volume for each cell was individually calibrated.
Human epidermis samples were prepared according to standard protocols. The samples were obtained from abdominal skin of two 30-50 year old Eurasiatic donors. The samples were used as a membrane between the two chambers in the Franz cells. […]
Before being mounted on the Franz cell, each epidermal sheet was visually inspected to avoid any possible defects. Additionally, the electrical resistance of isolated epidermis was measured to ensure the integrity of the barrier membrane. […]
The prepared Franz cells were stirred continuously using a magnetic stir bar at a temperature of 37° C. […] After standing for 24 hours, the supernatant was centrifuged at 3000 rpm for 10 minutes at 23° C. and analyzed by HPLC. […]

[5] = after oral administration; cited from earlier work

| Compound | volume of distribution [1] [L] | plasma protein binding [2] [%] | logP [3] | suppression of DHT production (serum DHT; after sustained oral administration) | dutasteride in the receiver compartment [4] | systemic clearance (CL) [5] [mL/min] | reduction of serum DHT levels (serum DHT) | reduction of serum DHT levels (serum DHT; listed as Finasteride) |
| --- | --- | --- | --- | --- | --- | --- | --- | --- |
| C[C@]12C=CC(=O)N[C@@H]1CC[C@@H]1[C@@H]2CC[C@]2(C)[C@@H](C(=O)Nc3cc(C(F)(F)F)ccc3C(F)(F)F)CC[C@@H]12 [dutasteride, Dutasteride] | 300 to 500 | 99 | 6.8 | up to 99% | never detected | – | – | – |
| CC(C)(C)NC(=O)[C@H]1CC[C@H]2[C@@H]3CC[C@H]4NC(=O)C=C[C@]4(C)[C@H]3CC[C@]12C [finasteride, Finasteride] | 44 to 96 | – | 3.03 | – | – | 165 | 60 to 70% and 60-70% | 65-70% |
